Earlier results on 3 substances are cited in patent publication US20070087333A1, “Method to detect antigen-specific cytolytic activity” (Erasmus Universiteit Rotterdam, priority 2004, published 2007).

In one series the test system is TCC-C10 CTL clone. The conditions noted are these: NP418-426 epitope variants, 51Cr-release assay, reference [2]; read-out: EC50 value of the peptide variant (functional avidity).
The subject of the next series is TCC3180 CTL clone. Particulars: NP418-426 epitope variants, 51Cr-release assay, reference [2]; for EC50: read-out: EC50 value of the peptide variant (functional avidity).

Bounds are passed on as bounds.

Turning to “NP01: HLA-B*3501 epitope NP418-426 peptide variant of influenza NP strain A/NL/18/94 (LPFEKSTVM; Derived from influenza virus genes encoding NP strain A/NL/18/94 (NP01))”, the EC50 in the series with TCC-C10 CTL clone was about 0.8 nM; with TCC3180 CTL clone it was 0.5 nM.

For “NP02: HLA-B*3501 epitope NP418-426 peptide variant of influenza NP strain A/HK/2/68 (LPFDKPTIM; Derived from influenza virus genes encoding NP strain A/HK/2/68 (NP02))”, the values for the concentration for a half-maximal effect (EC50) with TCC-C10 CTL clone and in the series with TCC3180 CTL clone were over 5000 nM and 26 nM, respectively.

Consider “NP03: HLA-B*3501 epitope NP418-426 peptide variant of influenza NP strain A/PR/8/34 (LPFDRTTIM; Derived from influenza virus genes encoding NP strain A/PR/8/34 (NP03))”, for which, in the series with TCC-C10 CTL clone, the concentration giving a half-maximal response (EC50) was over 10000 nM. In addition, the “EC50 value of the peptide variant (functional avidity)” value in the series on TCC3180 CTL clone was “l lOO”.
